From patent publication US8148391B2 (Cephalon, Inc., priority 2006, dated 2012) come the findings set out here.

pIC50: −log10 of the molar value.

Assay [1] deals with T1, baculovirus-expressed ALK (Homo sapiens, UniProt Q9UM73).
T1 construct: host or cells: baculovirus expression system
In words: ALK Kinase Assay (ELISA-type, time-resolved fluorescence). It is filed as biochemical. The settings on record: 1 μM ATP (Km level), 30 ng/ml ALK, 37° C., 15 minutes; read-out: ALK Activity (ALK kinase inhibition, IC50 class). Summed up:
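Plates coated with phospholipase C-γ substrate (10 μg/mL in TBS); reaction started with 30 ng/ml ALK and run 15 min at 37° C. Phosphorylated substrate detected with Eu-N1-labeled PT66 antibody. IC50 from sigmoidal variable-slope fit of percent inhibition vs log concentration.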

The target in assay [2] is T2, c-Met (cytoplasmic domain) (Homo sapiens, UniProt P08581).
T2 construct: 10 ng/mL c-Met (cytoplasmic domain, Invitrogen Corporation #PV3143); purchased Invitrogen Corporation PV3143
In words: c-Met Kinase Assay (same methods as for ALK, with modifications). To be noted: 1 μM ATP (Km level), 10 ng/mL c-Met; read-out: cMet Activity (c-Met kinase inhibition, IC50 class). It is filed as biochemical. The method, boiled down:
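Plates were coated with phospholipase C-γ substrate (10 μg/mL) in TBS, and the reaction was started with 10 ng/mL c-Met cytoplasmic domain and run 15 min at 37 °C. Phosphoproduct was detected with Eu-N1-labelled PT66 antibody. IC50 came from a variable-slope sigmoidal fit of percent inhibition vs log concentration.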

T2 sequence (P08581 956-1390 limits assumed): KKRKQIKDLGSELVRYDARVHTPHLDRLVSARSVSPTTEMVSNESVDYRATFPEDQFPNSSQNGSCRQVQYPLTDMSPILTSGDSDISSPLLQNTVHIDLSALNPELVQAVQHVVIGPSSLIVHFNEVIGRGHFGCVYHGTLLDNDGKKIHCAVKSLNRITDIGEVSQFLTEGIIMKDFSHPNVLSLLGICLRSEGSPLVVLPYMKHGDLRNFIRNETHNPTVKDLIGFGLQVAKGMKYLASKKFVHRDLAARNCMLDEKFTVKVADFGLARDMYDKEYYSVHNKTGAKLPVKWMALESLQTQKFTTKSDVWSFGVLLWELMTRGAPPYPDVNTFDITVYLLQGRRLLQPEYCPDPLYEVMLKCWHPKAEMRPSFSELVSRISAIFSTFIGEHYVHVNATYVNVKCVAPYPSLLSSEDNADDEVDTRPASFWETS
T1 sequence (Q9UM73 19-1620): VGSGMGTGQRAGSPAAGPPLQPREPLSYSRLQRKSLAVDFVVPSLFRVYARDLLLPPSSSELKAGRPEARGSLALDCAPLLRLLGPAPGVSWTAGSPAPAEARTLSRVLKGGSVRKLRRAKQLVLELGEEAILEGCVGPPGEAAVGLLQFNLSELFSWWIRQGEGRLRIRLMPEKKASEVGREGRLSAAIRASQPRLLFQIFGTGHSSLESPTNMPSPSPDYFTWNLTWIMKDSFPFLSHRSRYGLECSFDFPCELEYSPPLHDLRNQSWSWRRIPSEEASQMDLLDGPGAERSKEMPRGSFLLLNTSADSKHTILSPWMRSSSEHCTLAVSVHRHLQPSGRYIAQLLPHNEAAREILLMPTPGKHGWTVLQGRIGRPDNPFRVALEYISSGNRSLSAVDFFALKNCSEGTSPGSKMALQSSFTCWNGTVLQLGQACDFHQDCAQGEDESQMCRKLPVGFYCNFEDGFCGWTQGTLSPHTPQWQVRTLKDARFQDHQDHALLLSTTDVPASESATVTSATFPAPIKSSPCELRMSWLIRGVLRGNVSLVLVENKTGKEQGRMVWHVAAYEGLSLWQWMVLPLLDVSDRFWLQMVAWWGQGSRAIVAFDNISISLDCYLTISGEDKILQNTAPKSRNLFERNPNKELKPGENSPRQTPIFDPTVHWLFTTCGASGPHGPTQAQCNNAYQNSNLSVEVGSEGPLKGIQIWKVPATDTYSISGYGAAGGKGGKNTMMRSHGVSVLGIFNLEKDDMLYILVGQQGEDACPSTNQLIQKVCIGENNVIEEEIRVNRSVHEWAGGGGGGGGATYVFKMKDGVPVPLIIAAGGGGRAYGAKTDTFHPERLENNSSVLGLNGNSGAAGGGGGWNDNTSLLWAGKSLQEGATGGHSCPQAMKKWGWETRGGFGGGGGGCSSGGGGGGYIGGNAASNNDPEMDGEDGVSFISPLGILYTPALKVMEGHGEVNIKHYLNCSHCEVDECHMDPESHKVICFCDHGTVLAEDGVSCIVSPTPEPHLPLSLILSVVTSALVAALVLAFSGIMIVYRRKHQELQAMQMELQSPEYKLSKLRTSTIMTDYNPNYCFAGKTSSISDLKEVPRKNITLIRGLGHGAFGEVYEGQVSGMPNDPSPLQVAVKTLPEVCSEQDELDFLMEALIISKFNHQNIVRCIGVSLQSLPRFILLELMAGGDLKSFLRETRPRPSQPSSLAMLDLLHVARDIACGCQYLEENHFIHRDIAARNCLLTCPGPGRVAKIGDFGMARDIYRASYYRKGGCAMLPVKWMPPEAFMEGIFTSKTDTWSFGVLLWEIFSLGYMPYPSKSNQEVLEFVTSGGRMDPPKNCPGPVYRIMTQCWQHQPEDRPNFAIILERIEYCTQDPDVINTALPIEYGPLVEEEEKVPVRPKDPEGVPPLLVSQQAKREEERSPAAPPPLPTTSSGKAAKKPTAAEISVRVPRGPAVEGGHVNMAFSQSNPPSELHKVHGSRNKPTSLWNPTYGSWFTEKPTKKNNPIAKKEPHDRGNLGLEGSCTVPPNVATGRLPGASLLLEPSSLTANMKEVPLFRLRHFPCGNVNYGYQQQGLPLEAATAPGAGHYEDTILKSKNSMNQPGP

On to `COc1cc2c(cc1Nc1ncc(Cl)c(Nc3ccccc3S(=O)(=O)N3CCCC3)n1)CCN(Cc1ncco1)CC2` [Example 1191, 5-Chloro-N*2*-(8-methoxy-3-oxazol-2-ylmethyl-2,3,4,5-tetrahydro-1H-benzo[d]azepin-7-yl)-N*4*-[2-(pyrrolidine-1-sulfonyl)-phenyl]-pyrimidine-2,4-diamine], for which the pIC50 in assay [1] is greater than 7.00; in assay [2] it was 5.00 to 6.00.

Consider `COc1cc2c(cc1Nc1ncc(Cl)c(Nc3ccccc3S(=O)(=O)N(C)C)n1)CCN(C(=O)CN1CCOCC1)CC2` [Example 1192, 2-{5-Chloro-2-[8-methoxy-3-(2-morpholin-4-yl-acetyl)-2,3,4,5-tetrahydro-1H-benzo[d]azepin-7-ylamino]-pyrimidin-4-ylamino}-N,N-dimethyl-benzenesulfonamide], for which the pIC50 was greater than 7.00 in assay [1] and 5.00 to 6.00 in assay [2].

In the case of `COc1cc2c(cc1Nc1ncc(Cl)c(Nc3ccccc3S(=O)(=O)N3CCC(O)C3)n1)CCNC(=O)C2` (stereo not shown) [Example 1193, 7-{5-Chloro-4-[2-(3-hydroxy-pyrrolidine-1-sulfonyl)-phenylamino]-pyrimidin-2-ylamino}-8-methoxy-1,3,4,5-tetrahydro-benzo[d]azepin-2-one], the results for the negative logarithm of the IC50 (pIC50) in assay [1] and in assay [2] were greater than 7.00 and 6.00 to 7.00, respectively.

In the case of `COc1cc2c(cc1Nc1ncc(Cl)c(Nc3ccccc3S(=O)(=O)N(C)C)n1)CCNC(=O)C2` [Example 1194, 2-[5-Chloro-2-(8-methoxy-2-oxo-2,3,4,5-tetrahydro-1H-benzo[d]azepin-7-ylamino)-pyrimidin-4-ylamino]-N,N-dimethyl-benzenesulfonamide], the values for the pIC50 in assay [1] and in assay [2] were greater than 7.00 and 5.00 to 6.00, respectively.

In the case of `COc1cc2c(cc1Nc1ncc(Cl)c(Nc3ccccc3S(=O)(=O)N(C)C)n1)CCN(CCN1CCOCC1)C(=O)C2` [Example 1195, 2-{5-Chloro-2-[8-methoxy-3-(2-morpholin-4-yl-ethyl)-2-oxo-2,3,4,5-tetrahydro-1H-benzo[d]azepin-7-ylamino]-pyrimidin-4-ylamino}-N,N-dimethyl-benzenesulfonamide], the pIC50 in assay [1] was greater than 7.00; in assay [2], 5.00 to 6.00.

For the compound `CNC(=O)C1(Nc2nc(Nc3cc4c(cc3OC)CCN(CCOC)CC4)ncc2Cl)CC1` [Example 1196, 1-{5-Chloro-2-[8-methoxy-3-(2-methoxy-ethyl)-2,3,4,5-tetrahydro-1H-benzo[d]azepin-7-ylamino]-pyrimidin-4-ylamino}-cyclopropanecarboxylic acid methylamide], the pIC50 is 5.00 to 6.00 in assay [1] and less than 5.00 in assay [2].

As for `COCCN1CCc2cc(Nc3ncc(Cl)c(NC4(C(=O)NCC#N)CC4)n3)c(OC)cc2CC1` [Example 1197, 1-{5-Chloro-2-[8-methoxy-3-(2-methoxy-ethyl)-2,3,4,5-tetrahydro-1H-benzo[d]azepin-7-ylamino]-pyrimidin-4-ylamino}-cyclopropanecarboxylic acid cyanomethyl-amide], the pIC50 was 5.00 to 6.00 in assay [1] and less than 5.00 in assay [2].

Consider `CNC(=O)C1(Nc2nc(Nc3cc4c(cc3OC)CCN(CC(=O)N(C)C)CC4)ncc2Cl)CC1` [Example 1198, 1-[5-Chloro-2-(3-dimethylcarbamoylmethyl-8-methoxy-2,3,4,5-tetrahydro-1H-benzo[d]azepin-7-ylamino)-pyrimidin-4-ylamino]-cyclopropanecarboxylic acid methylamide], for which the results for the pIC50 in assay [1] and in assay [2] were greater than 7.00 and less than 5.00, respectively.

Turning to `COc1cc2c(cc1Nc1ncc(Cl)c(NC3(C(=O)NCC#N)CC3)n1)CCN(CC(=O)N(C)C)CC2` [Example 1199, 1-[5-Chloro-2-(3-dimethylcarbamoylmethyl-8-methoxy-2,3,4,5-tetrahydro-1H-benzo[d]azepin-7-ylamino)-pyrimidin-4-ylamino]-cyclopropanecarboxylic acid cyanomethyl-amide], the pIC50 in assay [1] is 6.00 to 7.00; in assay [2] it was less than 5.00.

As to `COc1ccc(Nc2nc(Nc3cc4c(cc3OC)CCN(CC(=O)N(C)C)CC4)ncc2Cl)c(OC)n1` [Example 1200, 2-{7-[5-Chloro-4-(2,6-dimethoxy-pyridin-3-ylamino)-pyrimidin-2-ylamino]-8-methoxy-1,2,4,5-tetrahydro-benzo[d]azepin-3-yl}-N,N-dimethyl-acetamide], the pIC50 in assay [1] is greater than 7.00; in assay [2] it was 5.00 to 6.00.

On to `COc1cc2c(cc1Nc1ncc(Cl)c(Nc3ccccc3S(=O)(=O)N(C)C)n1)CCN(CC(=O)N1CCC1)CC2` [Example 1201, 2-{2-[3-(2-Azetidin-1-yl-2-oxo-ethyl)-8-methoxy-2,3,4,5-tetrahydro-1H-benzo[d]azepin-7-ylamino]-5-chloro-pyrimidin-4-ylamino}-N,N-dimethyl-benzenesulfonamide], for which the values for the pIC50 in assay [1] and in assay [2] were greater than 7.00 and less than 5.00, respectively.

As for `COc1cc2c(cc1Nc1ncc(Cl)c(NC3(C(=O)OC(C)C)CCCC3)n1)CCN(CC(=O)N(C)C)CC2` [Example 1202, 1-[5-Chloro-2-(3-dimethylcarbamoylmethyl-8-methoxy-2,3,4,5-tetrahydro-1H-benzo[d]azepin-7-ylamino)-pyrimidin-4-ylamino]-cyclopentanecarboxylic acid isopropyl ester], the figures for the pIC50 in assay [1] and in assay [2] were 6.00 to 7.00 and less than 5.00, respectively.

As to `COc1cc2c(cc1Nc1ncc(Cl)c(Nc3ccccc3S(=O)(=O)N3CC[C@@H](O)C3)n1)CCN(CC(=O)N(C)C)CC2` [Example 1205, 2-(7-{5-Chloro-4-[2-((R)-3-hydroxy-pyrrolidine-1-sulfonyl)-phenylamino]-pyrimidin-2-ylamino}-8-methoxy-1,2,4,5-tetrahydro-benzo[d]azepin-3-yl)-N,N-dimethyl-acetamide], the pIC50 in assay [1] was greater than 7.00; in assay [2], 5.00 to 6.00.

Take `COc1cc2c(cc1Nc1ncc(Cl)c(Nc3ccccc3S(=O)(=O)N3CC[C@H](O)C3)n1)CCN(CC(=O)N(C)C)CC2` [Example 1206, 2-(7-{5-Chloro-4-[2-((S)-3-hydroxy-pyrrolidine-1-sulfonyl)-phenylamino]-pyrimidin-2-ylamino}-8-methoxy-1,2,4,5-tetrahydro-benzo[d]azepin-3-yl)-N,N-dimethyl-acetamide]: the pIC50 was greater than 7.00 in assay [1] and 5.00 to 6.00 in assay [2].

Turning to `COc1cc2c(cc1Nc1ncc(Cl)c(Nc3ccccc3S(=O)(=O)N(C)C)n1)CCN(C(=O)C(C)(C)N)CC2` [Example 1207, 2-{2-[3-(2-Amino-2-methyl-propionyl)-8-methoxy-2,3,4,5-tetrahydro-1H-benzo[d]azepin-7-ylamino]-5-chloro-pyrimidin-4-ylamino}-N,N-dimethyl-benzenesulfonamide], the pIC50 is greater than 7.00 in assay [1] and 5.00 to 6.00 in assay [2].

As to `CNc1nc(OC)ccc1Nc1nc(Nc2cc3c(cc2OC)CCN(CC(=O)N(C)C)CC3)ncc1Cl` [Example 1208, 2-{7-[5-Chloro-4-(6-methoxy-2-methylamino-pyridin-3-ylamino)-pyrimidin-2-ylamino]-8-methoxy-1,2,4,5-tetrahydro-benzo[d]azepin-3-yl}-N,N-dimethyl-acetamide], the pIC50 is greater than 7.00 in assay [1] and less than 5.00 in assay [2].

As for `CNc1nc(N2CCOCC2)ccc1Nc1nc(Nc2cc3c(cc2OC)CCN(CC(=O)N(C)C)CC3)ncc1Cl` [Example 1209, 2-{7-[5-Chloro-4-(2-methylamino-6-morpholin-4-yl-pyridin-3-ylamino)-pyrimidin-2-ylamino]-8-methoxy-1,2,4,5-tetrahydro-benzo[d]azepin-3-yl}-N,N-dimethyl-acetamide], the negative logarithm of the IC50 (pIC50) in assay [1] is greater than 7.00; in assay [2], less than 5.00.
